Test results reported in patent US20120034613A1, “Apparatus and Method for Testing Relationships Between Gene Expression and Physical Appearance of Skin” (NSE Products, Inc., priority 2010, published 2012).

System: EpidermFT™ Skin Model (EFT-400) full thickness skin cultures
Assay: Affymetrix GeneChip HG U133 Plus 2.0 microarray global gene expression, agent-exposed vs untreated skin cultures
Format: cell-based, human
[1] = probe 206026_s_at, Table 3 skin structure
[2] = probe 209126_x_at, Table 3 skin structure
[3] = probe 209792_s_at, Table 3 skin structure

`OCc1ccccc1O[C@@H]1O[C@H](CO)[C@@H](O)[C@H](O)[C@H]1O` [Salicin, 2-(Hydroxymethyl)phenyl β-D-glucospyranoside] was tested, and the “Direction PTPRG” value (probe 204944_at, 0.5%, 24 hr) was “up”, the “Fold change PTPRG” value (probe 204944_at, 0.5%, 24 hr) was 2.299 and the “Direction ITGB4” value (probe 204990_s_at, 0.5%, 24 hr) was “down”. The “Fold change ITGB4” value (probe 204990_s_at, 0.5%, 24 hr) was 4.527, the “Direction FGFBP1” value (probe 205014_at, 0.5%, 24 hr) was “down” and the “Fold change FGFBP1” value (probe 205014_at, 0.5%, 24 hr) was 3.406. The “Direction TGFA” value (probe 205015_s_at, 0.5%, 24 hr) was “down”, the “Fold change TGFA” value (probe 205015_s_at, 0.5%, 24 hr) was 3.134 and the “Direction FGF13” value (probe 205110_s_at, 0.5%, 24 hr) was “up”. The “Fold change FGF13” value (probe 205110_s_at, 0.5%, 24 hr) was 2.158, the “Direction PTGS1” value (probe 205128_x_at, 0.5%, 24 hr) was “up” and the “Fold change PTGS1” value (probe 205128_x_at, 0.5%, 24 hr) was 2.327. For the same compound, the “Direction IL6” value (probe 205207_at, 0.5%, 24 hr) was “up”, the “Fold change IL6” value (probe 205207_at, 0.5%, 24 hr) was 3.197 and the “Direction LIF” value (probe 205266_at, 0.5%, 24 hr) was “up”. For the same compound, the “Fold change LIF” value (probe 205266_at, 0.5%, 24 hr) was 3.702, the “Direction ATP2B4” value (probe 205410_s_at, 0.5%, 24 hr) was “up” and the “Fold change ATP2B4” value (probe 205410_s_at, 0.5%, 24 hr) was 3.984. The “Direction KLK11” value (probe 205470_s_at, 0.5%, 24 hr) was “down”, the “Fold change KLK11” value (probe 205470_s_at, 0.5%, 24 hr) was 3.318 and the “Direction TAGLN” value (probe 205547_s_at, 0.5%, 24 hr) was “up”. The “Fold change TAGLN” value (probe 205547_s_at, 0.5%, 24 hr) was 2.426, the “Direction EREG” value (probe 205767_at, 0.5%, 24 hr) was “up” and the “Fold change EREG” value (probe 205767_at, 0.5%, 24 hr) was 2.487. The “Direction FGF7” value (probe 205782_at, 0.5%, 24 hr) was “up”, the “Fold change FGF7” value (probe 205782_at, 0.5%, 24 hr) was 3.158 and the “Direction KLK13” value (probe 205783_at, 0.5%, 24 hr) was “down”. The “Fold change KLK13” value (probe 205783_at, 0.5%, 24 hr) was 3.619, the “Direction CLGN” value (probe 205830_at, 0.5%, 24 hr) was “up” and the “Fold change CLGN” value (probe 205830_at, 0.5%, 24 hr) was 2.486. For the same compound, the “Direction KRT1” value (probe 205900_at, 0.5%, 24 hr) was “down”, the “Fold change KRT1” value (probe 205900_at, 0.5%, 24 hr) was 4.141 and the “Direction CREB5” value (probe 205931_s_at, 0.5%, 24 hr) was “up”. For the same compound, the “Fold change CREB5” value (probe 205931_s_at, 0.5%, 24 hr) was 9.909, the “Direction IL15” value (probe 205992_s_at, 0.5%, 24 hr) was “up” and the “Fold change IL15” value (probe 205992_s_at, 0.5%, 24 hr) was 4.326. The “Direction TNFAIP6” value (probe 206025_s_at, 0.5%, 24 hr) was “up”, the “Fold change TNFAIP6” value (probe 206025_s_at, 0.5%, 24 hr) was 3.182 and the “Direction TNFAIP6” value [1] was “up”. The “Fold change TNFAIP6” value [1] was 2.52, the “Direction DSC3” value (probe 206033_s_at, 0.5%, 24 hr) was “down” and the “Fold change DSC3” value (probe 206033_s_at, 0.5%, 24 hr) was 4.676. The “Direction BMP6” value (probe 206176_at, 0.5%, 24 hr) was “up”, the “Fold change BMP6” value (probe 206176_at, 0.5%, 24 hr) was 7.765 and the “Direction CDSN” value (probe 206193_s_at, 0.5%, 24 hr) was “down”. The “Fold change CDSN” value (probe 206193_s_at, 0.5%, 24 hr) was 11.11, the “Direction MAP3K13” value (probe 206249_at, 0.5%, 24 hr) was “up” and the “Fold change MAP3K13” value (probe 206249_at, 0.5%, 24 hr) was 2.252. The “Direction IL18” value (probe 206295_at, 0.5%, 24 hr) was “down”, the “Fold change IL18” value (probe 206295_at, 0.5%, 24 hr) was 19.31 and the “Direction CCL13” value (probe 206407_s_at, 0.5%, 24 hr) was “up”. The “Fold change CCL13” value (probe 206407_s_at, 0.5%, 24 hr) was 5.516, the “Direction F2RL1” value (probe 206429_at, 0.5%, 24 hr) was “down” and the “Fold change F2RL1” value (probe 206429_at, 0.5%, 24 hr) was 2.099. The “Direction IL24” value (probe 206569_at, 0.5%, 24 hr) was “up”, the “Fold change IL24” value (probe 206569_at, 0.5%, 24 hr) was 8.737 and the “Direction IL18R1” value (probe 206618_at, 0.5%, 24 hr) was “up”. For the same compound, the “Fold change IL18R1” value (probe 206618_at, 0.5%, 24 hr) was 2.865, the “Direction HAL” value (probe 206643_at, 0.5%, 24 hr) was “down” and the “Fold change HAL” value (probe 206643_at, 0.5%, 24 hr) was 55.87. For the same compound, the “Direction DGKI” value (probe 206806_at, 0.5%, 24 hr) was “up”, the “Fold change DGKI” value (probe 206806_at, 0.5%, 24 hr) was 2.74 and the “Direction IL11” value (probe 206924_at, 0.5%, 24 hr) was “up”. For the same compound, the “Fold change IL11” value (probe 206924_at, 0.5%, 24 hr) was 9.694, the “Direction IL8RB” value (probe 207008_at, 0.5%, 24 hr) was “down” and the “Fold change IL8RB” value (probe 207008_at, 0.5%, 24 hr) was 11.11. For the same compound, the “Direction DSC1” value (probe 207324_s_at, 0.5%, 24 hr) was “down”, the “Fold change DSC1” value (probe 207324_s_at, 0.5%, 24 hr) was 12.95 and the “Direction PTGES” value (probe 207388_s_at, 0.5%, 24 hr) was “up”. For the same compound, the “Fold change PTGES” value (probe 207388_s_at, 0.5%, 24 hr) was 2.768, the “Direction CSF3” value (probe 207442_at, 0.5%, 24 hr) was “up” and the “Fold change CSF3” value (probe 207442_at, 0.5%, 24 hr) was 11.09. For the same compound, the “Direction IL1RL1” value (probe 207526_s_at, 0.5%, 24 hr) was “up”, the “Fold change IL1RL1” value (probe 207526_s_at, 0.5%, 24 hr) was 9.09 and the “Direction LCE2B” value (probe 207710_at, 0.5%, 24 hr) was “down”. For the same compound, the “Fold change LCE2B” value (probe 207710_at, 0.5%, 24 hr) was 200.5, the “Direction LOR” value (probe 207720_at, 0.5%, 24 hr) was “down” and the “Fold change LOR” value (probe 207720_at, 0.5%, 24 hr) was 32.35. The “Direction KRT9” value (probe 208188_at, 0.5%, 24 hr) was “down”, the “Fold change KRT9” value (probe 208188_at, 0.5%, 24 hr) was 2.539 and the “Direction SPRR2B” value (probe 208539_x_at, 0.5%, 24 hr) was “down”. For the same compound, the “Fold change SPRR2B” value (probe 208539_x_at, 0.5%, 24 hr) was 5.554, the “Direction PDE3B” value (probe 208591_s_at, 0.5%, 24 hr) was “up” and the “Fold change PDE3B” value (probe 208591_s_at, 0.5%, 24 hr) was 2.851. The “Direction FADS1” value (probe 208962_s_at, 0.5%, 24 hr) was “up”, the “Fold change FADS1” value (probe 208962_s_at, 0.5%, 24 hr) was 2.889 and the “Direction KRT6A” value (probe 209125_at, 0.5%, 24 hr) was “down”. For the same compound, the “Fold change KRT6A” value (probe 209125_at, 0.5%, 24 hr) was 2.034, the “Direction KRT6B” value [2] was “down” and the “Fold change KRT6B” value [2] was 3.952. The “Direction TM4SF1” value (probe 209387_s_at, 0.5%, 24 hr) was “up”, the “Fold change TM4SF1” value (probe 209387_s_at, 0.5%, 24 hr) was 3.187 and the “Direction SPON1” value (probe 209437_s_at, 0.5%, 24 hr) was “up”. For the same compound, the “Fold change SPON1” value (probe 209437_s_at, 0.5%, 24 hr) was 2.36, the “Direction CALM1 /// CALM2 /// CALM3” value (probe 209563_x_at, 0.5%, 24 hr) was “down” and the “Fold change CALM1 /// CALM2 /// CALM3” value (probe 209563_x_at, 0.5%, 24 hr) was 2.029. The “Direction GATA3” value (probe 209602_s_at, 0.5%, 24 hr) was “down”, the “Fold change GATA3” value (probe 209602_s_at, 0.5%, 24 hr) was 15.7 and the “Direction CXCL2” value (probe 209774_x_at, 0.5%, 24 hr) was “up”. The “Fold change CXCL2” value (probe 209774_x_at, 0.5%, 24 hr) was 7.546, the “Direction CASP6” value (probe 209790_s_at, 0.5%, 24 hr) was “down” and the “Fold change CASP6” value (probe 209790_s_at, 0.5%, 24 hr) was 2.668. For the same compound, the “Direction KLK10” value [3] was “down”, the “Fold change KLK10” value [3] was 4.49 and the “Direction PKP3” value (probe 209873_s_at, 0.5%, 24 hr) was “down”. For the same compound, the “Fold change PKP3” value (probe 209873_s_at, 0.5%, 24 hr) was 4.615, the “Direction CALML3” value (probe 210020_x_at, 0.5%, 24 hr) was “down” and the “Fold change CALML3” value (probe 210020_x_at, 0.5%, 24 hr) was 11.27. The “Direction CSF2” value (probe 210229_s_at, 0.5%, 24 hr) was “up”, the “Fold change CSF2” value (probe 210229_s_at, 0.5%, 24 hr) was 16.55 and the “Direction FLT1” value (probe 210287_s_at, 0.5%, 24 hr) was “up”. For the same compound, the “Fold change FLT1” value (probe 210287_s_at, 0.5%, 24 hr) was 3.95, the “Direction HYAL1” value (probe 210619_s_at, 0.5%, 24 hr) was “down” and the “Fold change HYAL1” value (probe 210619_s_at, 0.5%, 24 hr) was 4.538.
